Measured values: patent US9072709B2 (The Regents of the University of California, priority 2009, dated 2015)
Each block holds one molecule with its values, some of them ahead of it.

Legend:
[1] = test system: Swiss-Weber mice; test: Mouse hindquarter (muscle pouch) ectopic bone formation assay, BBP alone or with rhBMP-2; format: in vivo; conditions: for Bone Area / Bone Mineral Content: 21 days, mean SE
Protocol: The osteogenic activity of material was tested using male Swiss-Weber mice aged 8 to 10 weeks were used (Taconic Farms, Germantown, N.Y.). […] The dried material was placed in a #5 gelatin capsule and sterilized by exposure to chloroform vapor. To conduct the assay, mice were anesthetized using 1% isoflurane delivered in oxygen at 2 l/min through a small animal anesthesia machine (VetEquip, Pleasanton, Calif.). Animals were affixed to a surgery board and the fur over the hindquarters shaved. The skin was cleaned with 70% ethanol and a midline incision made over the spine adjacent to the hindquarters. Blunt dissection with scissors was used to expose the quadriceps muscle on one side. A small pouch was made in the muscle using the point of scissors and the #5 capsule containing the test material was inserted into the pouch. The skin was then closed with three 11 mm Michel surgical clips and the animal returned to its cage for monitoring.
After 21 days the animals were killed and the hindquarter removed. Radiological examination of the specimens was accomplished using a small parts X-Ray cabinet (Faxitron, Wheeling, Ill.). For quantization of bone formation, bone area and the bone mineral content (BMC) of an area of interest encompassing the site of ectopic bone formation was determined using a PIXImus2 small animal densitometer (GE Lunar, Madison, Wis.). Specimens were then placed in buffered formalin and submitted for routine processing for histological examination.

[2] = molecular target: T1, rhBMP-2 (Homo sapiens, UniProt P12643); test: Surface plasmon resonance kinetic analysis (Biacore X), ligand rhBMP-2; format: binding
T1 construct: purchased R&D Systems, Minneapolis, Minn
T1 sequence (P12643 283-396): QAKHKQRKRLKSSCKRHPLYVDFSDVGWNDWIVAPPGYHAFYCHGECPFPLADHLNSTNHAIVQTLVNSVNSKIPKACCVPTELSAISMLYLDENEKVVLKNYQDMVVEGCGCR
Protocol: (§1) The supernatant was decanted and used for analyses. Protein concentrations were determined suing UV spectroscopy at an absorbance of 280 nm. Extinction coefficients were calculated using ProtParam tool (www.expasy.ch/tools/protparam.html). Flow rates ranged from 5 to 50 μl/min, and injection volumes were 20 to 100 μl. To ensure uniformity, an effort was made to react sufficient ligand to the chip to give a baseline value of about 2500 RU (response units). The kinetic constants ka (on rate, association constant, “recognition”) and kd (off rate, dissociation constant, “stability”) as well as the equilibrium constant KD (equilibrium constant, “affinity”) were determined by a Langmuir analysis using BIAevaluation software (version 3.2) installed on the instrument by the manufacturer.

[3] = molecular target: T2, rhOP-1 (rhBMP-7) (Homo sapiens, UniProt P18075); test: Surface plasmon resonance kinetic analysis (Biacore X), ligand rhOP-1; format: binding; conditions: ligand rhOP-1 (rhBMP-7)
T2 construct: purchased R&D Systems, Minneapolis, Minn
T2 sequence (P18075 293-431): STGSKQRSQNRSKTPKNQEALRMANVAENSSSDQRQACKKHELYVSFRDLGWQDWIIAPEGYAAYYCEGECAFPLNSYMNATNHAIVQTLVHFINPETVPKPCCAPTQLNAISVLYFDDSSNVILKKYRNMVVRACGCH
Protocol: as §1

[4] = test system: rhTGF-β; test: Surface plasmon resonance kinetic analysis (Biacore X), ligand rhTGF-β; format: binding, human
Protocol: as §1

[5] = molecular target: T3, rmGDF-5 (Mus musculus, UniProt P43027); test: Surface plasmon resonance kinetic analysis (Biacore X), ligand rmGDF-5; format: binding
T3 construct: purchased R&D Systems, Minneapolis, Minn
T3 sequence (P43027 376-495): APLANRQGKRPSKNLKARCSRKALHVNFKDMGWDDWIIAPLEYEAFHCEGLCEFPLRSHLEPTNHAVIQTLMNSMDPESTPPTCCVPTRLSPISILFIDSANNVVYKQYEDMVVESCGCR
Protocol: The supernatant was decanted and used for analyses. […] Extinction coefficients were calculated using ProtParam tool (www.expasy.ch/tools/protparam.html). Flow rates ranged from 5 to 50 μl/min, and injection volumes were 20 to 100 μl. To ensure uniformity, an effort was made to react sufficient ligand to the chip to give a baseline value of about 2500 RU (response units).

[6] = test system: Lewis rats; test: Posterolateral intertransverse process spinal fusion at L4-L5 (radiographs, manual palpation, micro-CT); format: in vivo, rat; conditions: ACS with 1000 μg BBP, no rhOP-1, 8 weeks
Text: A total of 120 male Lewis rats (8 weeks of age, 200-260 g, Charles River, Wilmington, Mass.) were divided into 8 groups. Groups differed only by the materials added to the ACS (5×5×13 mm) that were applied to the surgical sites. The preparation of the implants was previously described in detail. (Alanay, et al., The adjunctive effect of a binding peptide on bone morphogenetic protein enhanced bone healing in a rodent model of spinal fusion. Spine 2008; 33:1709-13). Implanted rhOP-1 was obtained from Stryker Biotech, Hopkinton, Mass. […] Animals were sacrificed 8 weeks after surgery with CO2.
Surgical Technique. Animals were anesthetized with 2-2.5% isoflurane administered in oxygen (1 L/min) and the surgical site was shaved and disinfected with alternative betadine and 70% alcohol. Animals were premedicated with 0.15 mg buprenorphine and postoperatively received tapered doses every 12 hours for 2 days. […]
Radiographic Analysis. […] Radiographs were evaluated by 3 independent observers employing the following standardized scale: 0: no fusion; 1: incomplete fusion with bone formation present; and 2: complete fusion. […]
Manual Assessment of Fusion. Eight weeks after surgery, the spines were removed and evaluated by three blinded independent observers for intersegmental motion. […] Spines were scored as either fused or not fused. […]

[7] = BBP 50 μg implanted with 5 μg of rhBMP-2, densitometry
[8] = BBP 500 μg implanted with 5 μg of rhBMP-2, densitometry

kd “stability” ([2]; ligand rhBMP-2): 0.00169 s⁻¹
kd “stability” [3]: 0.00369 s⁻¹
kd “stability” ([4]; ligand rhTGF-β): 0.00175 s⁻¹
KD (kd/ka) “affinity” ([4]; ligand rhTGF-β on CM-5 chip, Langmuir analysis): 68 nM
kd “stability” [5]: 0.00352 s⁻¹
ectopic calcification in BBP only treatment groups [6]: Nor was ectopic calcification observed
Molecule: CSCC[C@@H]1NC(=O)[C@H](CCCNC(=N)N)NC(=O)[C@H](C(C)C)NC(=O)[C@H]([C@@H](C)O)NC(=O)[C@H](CO)NC(=O)[C@H](CCCNC(=N)N)NC(=O)[C@@H](N)CSSC[C@@H](C(=O)O)NC(=O)[C@H](CCCNC(=N)N)NC(=O)[C@H](C(C)C)NC(=O)[C@H](Cc2c[nH]c3ccccc23)NC(=O)[C@H](C(C)C)NC(=O)[C@H](CC(N)=O)NC(=O)[C@H](CCC(N)=O)NC(=O)[C@H](C(C)C)NC(=O)[C@H](CCC(N)=O)NC(=O)[C@H](CCC(=O)O)NC(=O)[C@H](C)NC(=O)[C@H](CO)NC1=O [BBP]
amount of ectopic bone formed, measured by densitometry, versus identical amount of rhBMP-2 alone ([1]; 500 μg of BBP implanted with 5 μg of rhBMP-2): consistently greater
histological section of mouse muscle ([1]; 500 μg of BBP in atelocollagen, 21 days after implantation, H & E stain): dystrophic calcification primarily associated with intramuscular adipose tissue
calcification when implanted alone with carrier (radiogram) ([1]; 500 μg of BBP in atelocollagen, mouse hind quarters, 21 days after implantation): induced calcification
Bone Area [1, 7]: 0.159 ± 0.0606 cm^2
Bone Mineral Content [1, 7]: 0.00388 ± 0.0017 g
Bone Area [1, 8]: 0.226 ± 0.0270 cm^2
Bone Mineral Content [1, 8]: 0.00528 ± 0.00068 g
ka “recognition” ([4]; ligand rhTGF-β): 27700 M⁻¹ s⁻¹
induction of spinal fusion by BBP by itself [6]: did not induce any degree of fusion

ka “recognition” ([2]; ligand rhBMP-2): 311000 M⁻¹ s⁻¹
kd “stability” ([2]; ligand rhBMP-2): 0.0055 s⁻¹
KD (kd/ka) “affinity” ([2]; ligand rhBMP-2 on CM-5 chip, Langmuir analysis): 17.7 nM
B1: spp24: parental protein of BBP, secreted phosphoprotein, 24 kD (protein)
chain: FPVYDYDPASLKEALSASVAKVNSQSLSPYLFRAFRSSVKRVNALDEDSLTMDLEFRIQETTCRRESEADPATCDFQRGYHVPVAVCRSTVRMSAEQVQNVWVRCHWSSSSGSSSSEEMFFGDILGSSTSRNSYLLGLTPDRSRGEPLYEPSREMRRNFPLGNRRYSNPWPRARVNPGFE
